Results on one compound are retold here after US7989018B2, “Fluid treatment of a polymeric coating on an implantable medical device” (Advanced Cardiovascular Systems, Inc., priority 2001, dated 2011).

Each structure is given as a SMILES string.

Data set [1] can be described thus: Drug release from stent coatings, Vankel Bio-Dis release rate tester, HPLC. The class given is physicochemical. The note with it: fluid-treated coating, Example 3. Here is the method: The drug-coated stents were placed on stent holders of a Vankel Bio-Dis release rate tester (Vankel, Inc., Cary, N.C.). 3 stents from each test group were dipped into an artificial medium for about 1 hour to extract the 40-O-(2-hydroxy)ethyl-rapamycin from the stent coatings. The artificial medium included phosphate buffer saline solution (10 mM, pH 7.4) and 1% TRITON X-100 Sigma Corporation) which stabilizes the 40-O-(2-hydroxy)ethyl-rapamycin in the testing solution. Each stent was tested in a separate testing solution to prevent cross-contamination. After extraction, each of the solutions was separately analyzed for the amount of drug released from the stent coatings by high pressure liquid chromatography (HPLC). The HPLC system consisted of a Waters 2690 system. After the drug solutions were analyzed by HPLC, the results were quantified by comparing the release rate results with a reference standard.
Each of the stents was then dipped in fresh extraction solutions for another 6 hours (7 hours total). The solutions were analyzed by HPLC as described above. […] The solutions were again analyzed by HPLC as described above.
The drug release profile could then be generated by plotting cumulative drug released in the medium vs. time. The percentage of drug released at a specific time was determined by comparing the cumulative drug released with the total content data. […]

Data set [2] is described as follows: Release of 40-O-(2-hydroxy)ethyl-rapamycin from a standard polymeric coating in release media. The class given is physicochemical. The note with it: in about 24 hours, certain release media.

Take `CO[C@H]1C[C@@H]2CC[C@@H](C)[C@@](O)(O2)C(=O)C(=O)N2CCCC[C@H]2C(=O)O[C@H]([C@H](C)C[C@@H]2CC[C@@H](OCCO)[C@H](OC)C2)CC(=O)[C@H](C)/C=C(\C)[C@@H](O)[C@@H](OC)C(=O)[C@H](C)C[C@H](C)/C=C/C=C/C=C/1C` [40-O-(2-hydroxy)ethyl-rapamycin]: the “decrease of release rate as compared to a control group” value in data set [1] is “about 50%”. The “release rate from a standard polymeric coating” value in data set [2] is recorded as “greater than 50%”.
